In general, LC50 refers to the concentration lethal to half of the exposed cells or organisms. A lower LC50 goes with greater toxicity.

Each structure is given as a SMILES string. Where only a bound is given, the exact number is not on record here.

This is an account of results in ChEMBL document CHEMBL1146548, “New anthracene derivatives from Coussarea macrophylla” (J Nat Prod, 2003).

The test system of one series is Artemia salina. The experiment in a line: Toxicity against Artemia salina. In kind it is organism-based. Conditions: in vivo.
The subject of the next series is Staphylococcus aureus. The experiment in a line: Antibacterial activity against Staphylococcus aureus at 19 ug/disk by standard filter disk assay. The series is classed as functional. Conditions: read-out: IZ.

Regarding `COCc1c(OC)cc2c(c1OC)C(=O)c1ccccc1C2=O`, in the series on Artemia salina, the LC50 is listed as more than 280 ppm. `COc1c(C=O)cc(OC)c2c(OC)c3ccccc3cc12`: the zone of inhibition at 19 µg/disc with Staphylococcus aureus was 12 mm. This molecule yielded an LC50 with Artemia salina of more than 280 ppm.
